# Experiment: gradient 5% acetonitrile 3 min, to 50% in 2 min, to 85% in 15 min, held 3 min, 100 µL/min
# Details: column: Zorbax Extend-C18 2.1 x 50 mm; eluents: water / acetonitrile, 0.1% formic acid
# Method in brief: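 Over 3 months, pure standards in mixtures of ~100 molecules were run by HPLC coupled to a quadrupole time-of-flight mass spectrometer in positive and negative ionization mode. The column was a Zorbax Extend-C18 (2.1 × 50 mm, 1.8 μm) at 100 μL/min, eluted with water and acetonitrile each holding 0.1% formic acid, with 40 μL dead and 900 μL dwell volumes. Retention time was determined from adduct peaks chosen by software and checked manually.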
row,RP-LC retention time [s],SMILES
1,590,Cc1cc(N2CCN(C)CC2)nc2ccc(NC(=O)Nc3cccc(Cl)c3)cc12
2,620,Nc1nc(-c2ccc(S(=O)(=O)N3CCOCC3)cc2)cs1
3,621,Cc1ccc2c(=O)c3c([nH]c2c1C)CCN(CC(=O)NCc1ccccc1F)C3
4,707,CCOc1cc(=O)n2c(c1C(=O)NCc1ccc3c(c1)OCO3)CCCC2
5,705,Cc1ccc(C)c(NC(=O)NCC2CCOCC2)c1
6,845,O=C(c1nc(Nc2ccc(F)cc2)c2ccccc2n1)N1CCCCCC1
7,634,CCC(C(=O)NCc1ccccn1)n1c2ccccc2c2cnn(C)c(=O)c21 (stereo not given)
8,794,Cc1cccc(C(=O)N2CCC3(C2)C(=O)N(C)c2ccccc23)c1 (stereo not given)
9,927,COc1ccc2c(c1OC)C(=O)N1N=C(c3ccc(-c4ccccc4)cc3)CC21 (stereo not given)
10,742,CCN1c2ccccc2C(=O)NC12CCN(C(=O)c1cccc(F)c1)CC2
11,1030,Cc1ccc(Oc2nccn3c(=O)n(CC(=O)Nc4ccc(C(C)C)cc4)nc23)cc1
12,741,CC1CC(=O)N(CC(=O)NCc2ccc3c(c2)OCO3)c2ccccc2S1 (stereo not given)
13,802,Cc1cc2nn(CC(=O)Nc3ccc(Cl)cc3)c(=O)n2c(N2CCCC2)n1
14,632,O=C(c1noc2c1CCCCC2)N1CCN(c2ccccn2)CC1
15,1080,O=C(Nc1ccccc1-c1nc2ccccc2[nH]1)c1cc2ccccc2o1
16,973,COc1ccc(-c2noc(Cc3nnc(-c4cccc(Cl)c4)o3)n2)cc1OC
17,581,CC(=O)N1CCC2(CC1)OC(=O)C(C)=C2C(=O)NC1CCN(Cc2ccccc2)CC1
18,1030,COc1ccc(N2CCN(c3cc(SCC(=O)Nc4ccccc4F)ncn3)CC2)cc1
19,834,Cc1ccc(-n2c(=O)c3c(cc(C)n3C)n(CC(=O)Nc3ccccc3)c2=O)cc1
20,654,Cc1ccc(F)c(-n2nnc(C(=O)O)c2-c2ccncc2)c1
21,810,O=C(C1CCN(c2cnc3nccnc3c2)CC1)N1CCN(c2ccc(Cl)cc2)CC1
22,828,O=C(CN1CCN(Cc2ccccc2)C(=O)C1=O)N1CCN(c2cccc(Cl)c2)CC1
23,658,Cc1noc(C)c1S(=O)(=O)N1CCC(Cn2c(C)cnc2-c2ccccc2)C1 (stereo not given)

row,RP-LC retention time [s],SMILES
1,619,COC[C@@H]1CN(c2ncccn2)C[C@H]1C(=O)N(C)Cc1ccco1
2,748,COc1ccc(-c2nnc(N3CCC(C(=O)Nc4ccc(OC)c(OC)c4)CC3)o2)cc1
3,703,COc1ccc(C2(C(=O)N3CCCN(Cc4noc(-c5ccccc5)n4)CC3)CC2)cc1
4,674,COCCNCc1ccc(-c2ccc(Br)cc2)o1
5,558,O=C(Cc1cccs1)NCC(c1ccsc1)N1CCCC1 (stereo not given)
6,1190,CCc1ccc(N2C(=O)C3N=NN(c4ccc(Br)c(C)c4)C3C2=O)cc1 (stereo not given)
7,790,COc1cccc(CNc2c(-c3nc(C(C)C)no3)cnc3nc(C)ccc23)c1
8,757,CCCNC(=O)CCc1nc2ccccc2n(CC(=O)Nc2cccc(OC)c2)c1=O
9,677,CCCNC(=O)C1CCN(c2ccc(SCC(=O)Nc3ccc(C(=O)OCC)cc3)nn2)CC1
10,721,CC(C)c1ccc(S(=O)(=O)N2CCc3c(c(CN4CCCC4)nn3C)C2)cc1
11,562,O=C(CN1CCN(c2nccn2-c2ccccc2F)CC1)Nc1ccc(F)cc1F
12,757,Cc1ccc(Cl)cc1NC(=O)N(C)CC1CCOC1 (stereo not given)
13,930,CCOC(=O)c1cnc2ccc(OCC)cc2c1N1CCN(c2ccccc2)CC1
14,936,O=C(c1ccc(Cl)cc1)N1CCN(c2cc(-c3ccc(Cl)cc3)[nH]n2)CC1
15,636,CCCNC(=O)C1CCN(c2ccc(SCC(=O)Nc3ccccc3C)nn2)CC1
16,902,COc1ccc(Cl)cc1NC(=O)Cc1csc2nc(-c3ccccc3)cn12
17,704,CCN(C(=O)Cn1c(CN(C)C(=O)c2ccco2)nc2ccccc21)c1ccccc1
18,791,COCCOCc1nc(C2CCN(S(=O)(=O)c3ccc(OC)cc3)C2)no1 (stereo not given)
19,582,CN1CCCC1c1nc(C2CN(C(=O)Cn3c(=O)oc4ccccc43)C2)no1 (stereo not given)
20,847,COC(=O)c1ccc(N2C=C(C#N)S(=O)(=O)c3cc(F)ccc32)cc1
21,581,CCc1nc2cc(N3CCC(C(=O)NCCN4CCOCC4)CC3)cnc2nc1CC
22,936,C=CCN(CC=C)c1nc(-c2ccc(Cl)cc2)nc2ccccc12
23,650,CCc1nncn1C1CCN(S(=O)(=O)c2ccc(OC)c(OC)c2)CC1

row,RP-LC retention time [s],SMILES
1,745,O=C(CCCn1c(=O)c2cccn2c2ccc(F)cc21)N1CCN(C(=O)c2ccco2)CC1
2,589,O=c1cc(-c2ccccc2)nc2n1CCN2Cc1ccncc1
3,674,O=C(NCC1CCN(C(=O)Nc2ccc(F)cc2)CC1)c1ccccn1
4,630,CN(CCNC(=O)c1ccc2c(c1)NC(=O)C1CCCCN21)C1CCCCC1 (stereo not given)
5,896,COc1ccccc1-n1ccnc(NC(=O)Nc2ccc(F)cc2)c1=O
6,1120,COCCSc1nc(-c2cccs2)cc(C(F)(F)F)c1C#N
7,682,CCN1CCCC1CNC(=O)c1nc(-c2oc3ccc(OC)cc3c2C)no1 (stereo not given)
8,909,Cc1c(C)n(C)c2ccc(C(=O)NCC(C)C)cc12
9,819,O=C(Cn1cnc(-c2nc(-c3ccccc3)cs2)c1)Nc1ccccc1
10,610,Cc1ccsc1C(=O)N1CCc2nn(C)c(=O)n2CC1
11,794,Cc1ccc(Cl)cc1NC(=O)CSc1nc2ncccc2c(=O)n1CC1CCCO1 (stereo not given)
12,573,Cc1nc2cccnc2n1C1CCN(C(=O)Nc2ccc3c(c2)OCCO3)C1 (stereo not given)
13,624,CCCc1cc(N2CCN(C(=O)c3ccc4c(c3)OCO4)CC2)nc2nnc(C)n12
14,649,CN(C)S(=O)(=O)c1ccc(-c2nnc(C(=O)NCc3ccccn3)o2)cc1
15,887,CCCCn1nc2ccc(S(=O)(=O)N3CCCCC3)cn2c1=O
16,657,CCOC(=O)c1cnc(Nc2nc(C)c3cc(C)cc(C)c3n2)nc1C
17,974,COc1ccc(C2(C(=O)N3CC(c4noc(COc5ccc(F)cc5)n4)C3)CC2)cc1
18,543,O=C(c1ccc(F)c(F)c1)N1CCN(CCn2cccn2)CC1
19,666,CCCN1CCN(C(=O)CC(c2ccc(C)cc2)N2Cc3ccccc3C2=O)CC1 (stereo not given)
20,877,COCCN1C(=O)c2ccccc2C(C(=O)NCc2ccc(F)cc2)C12CCCCC2 (stereo not given)
21,696,CS(=O)(=O)N1CCOc2ccc(NC(=O)C3CC3)cc2C1
22,691,CC1CCN(S(=O)(=O)c2ccc3nc(N4CCN(c5ccccn5)CC4)ccc3c2)CC1
23,930,CCC1Oc2ccc(S(=O)(=O)N3CCC(C(=O)Nc4ccc(C)c(C)c4)CC3)cc2NC1=O (stereo not given)

row,RP-LC retention time [s],SMILES
1,863,Cc1oc2cc3oc(=O)c(CC(=O)N[C@@H](Cc4c[nH]c5ccccc45)C(=O)O)c(C)c3cc2c1C
2,653,Cc1ccccc1NC(=O)C1C(=O)N(CCO)C2(C)CC1c1ccccc1O2 (stereo not given)
3,866,CCc1nnc(-c2cc(C)n(CC(=O)Nc3ccc(Cl)cc3F)c2C)o1
4,623,O=C(Cn1c(=O)c2cccn2c2ccc(F)cc21)NCCN1CCCCCC1
5,1100,CCc1ccccc1NS(=O)(=O)c1cc(-c2nc(C)cs2)sc1C
6,989,COc1ccc(OCc2nnc3sc(-c4ccc(OC)cc4OC)nn23)cc1
7,653,O=C(O)c1cnc(-c2ccccc2)nc1-c1ccncc1
8,692,O=C(CN1CCC2(CC1)N=C(c1ccc(F)cc1)C(=O)N2)Nc1cc(F)ccc1F
9,936,CCCn1c(-c2cccc(C(=O)NCc3cccc(C(F)(F)F)c3)c2)nc2cccnc21
10,686,CCC(=Cc1ccc(CC)cn1)CC
11,802,Cn1nc(C(=O)N2C[C@@H](Oc3ccccc3)C[C@H]2C(=O)NC2CC2)c2ccccc21
12,845,CCn1c(=O)sc2cc(S(=O)(=O)N3CCC(C(=O)NCc4ccccc4)CC3)ccc21
13,1090,Cc1cccc(-c2noc(-c3nn(CC(=O)NC(C)C)c4ccccc34)n2)c1
14,607,O=C(NC(Cc1ccccc1)c1nc2ccccc2[nH]1)c1cccs1 (stereo not given)
15,653,Cc1nnc(SCC(=O)N2CCN(c3nnnn3-c3ccccc3)CC2)s1
16,786,CCSc1ccccc1C(=O)NCc1ccsc1
17,656,Cc1cc(=O)n(CC(=O)NCc2ccc(F)cc2)c(N2CCCCC2)n1
18,593,CC(=O)Nc1ccc(S(=O)(=O)N2CCN(c3cnn4c(C)nnc4c3)CC2)cc1
19,926,COc1cccc(-c2noc(COC(=O)C3=CN(C)S(=O)(=O)N=C3C)n2)c1
20,682,COc1ccc(CC(=O)Nc2nnc(SCC(=O)NC3=NCCS3)s2)cc1

row,SMILES,RP-LC retention time [s]
1,COc1ccc2c(c1O)[C@]13CCN(C)[C@H](C2)[C@@H]1CCC(=O)C3,622

# Reference: the METLIN SMRT retention time set (Domingo-Almenara et al. 2019)
